How the values were obtained:
PKC-delta = details: in response to DNA damaging agents; previously shown; cited from earlier work
[1] = system: FaDu derived xenograft tumors; test: FaDu flank xenograft tumor growth with fractionated IR; format: in vivo, nude mice
Description: (§1) C57Bl/6 and athymic nude female mice were purchased from Jackson Laboratories (Bar Harbor, Me., USA). For single dose IR, mice were anesthetized by intraperitoneal (i.p.) injection of […] Avertin (Sigma), immobilized within a 50-mL conical tube, and a single dose of IR (10 or 15 Gy) was delivered to the head and neck using a Caesium-137 source. For fractionated IR, mice received 5 fractions of 6 Gy (tumor study) or 4 Gy (saliva production) on 5 consecutive days.

salivary gland function = test: Saliva production in mice after single dose head and neck IR; format: in vivo
Description: The star indicates time of IR treatment. Three TKI dosing regimens were used, where times of delivery is indicated by the filled circles. Mice were treated with the specific TKI 1 hour prior to delivery of IR (pre), 1 hour prior and 3 hours post IR (pre/post), or 3 and 6 hours post (post/post). Saliva production was assayed prior to IR (day 0) and at 60 days after IR as described in Examples. […] Saliva was collected […]. as described in Examples. Salivary production (saliva weight/animal weight) for each cohort of mice was normalized against the saliva production for vehicle treated mice to generate the data shown.
(§2) The star indicates time of IR treatment; while TKI delivery is indicated by the filled circles and arrows indicate time of saliva collection. Mice were dosed 1 hour prior and 3 hours post IR (pre/post), or pre/post plus twice a week for the duration of the experiment. Saliva production was assayed prior to IR (day 0) and at 30, 60, 90, 120 and 150 days after IR. Mice received vehicle alone, 15 Gy IR plus vehicle, or IR plus dasatinib as indicated. Saliva production (saliva weight/animal weight) for each cohort of mice was normalized against the production for vehicle-treated mice to generate the data shown in FIG. 3B. […] Salivary glands from mice in each group (n=2) were removed, formalin fixed and paraffin embedded. Immunohistochemistry for AQPN5 and H&E staining was performed on salivary glands from each mouse. […] Images were captured using an Olympus BX51 scope and Olympus DP72 camera with a 20× objective. Solid arrows indicate acinar cells while dashed arrows mark salivary gland ducts.
The schematic in FIG. 2A depicts the 3 dosing regimens used for the experiments in FIG. 2.
as §1
Saliva was collected immediately following i.p. injection of 0.1 mg/kg carbachol (Sigma) in saline (0.9% NaCl). Whole saliva was collected for 3 mins from the lower cheek pouch using a suction device and expressed as mg (saliva)/g (mouse weight).

ParC5 cells = test: IR-induced apoptosis, caspase-3/7 activity in salivary gland acinar cells; format: cell-based, rat; details: TKI pretreatment 30 min, 10 Gy IR, 18 hours after IR
Description: Whole cell lysates were resolved with SDS-PAGE and analyzed using phospho-specific antibodies that recognize PKC-delta pY64, pY155 or pT505. Membranes were stripped and probed for total PKC-delta and actin to determine loading. Each experiment was done a minimum of three times; representative immunoblots are shown. […] Caspase-3/7 activity was assayed as described in the Examples. Data shown is the average of triplicate samples from a representative experiment plus and minus the S.D. (error bars). The experiment was repeated three times, *=p<0.05 for caspase activity compared to cells expressing shScr. An immunoblot showing depletion of PKC-delta is shown below. […] The data are the average of triplicate measurements from a representative experiment plus the S.D. (error bars). Each experiment was repeated three times. *=p<0.05 for caspase activity compared to cells treated with IR alone. […] Inhibition of c-Src and c-Abl was determined by probing for their respective activation sites pY416 (c-Src) and pY412 (c-Abl). […]
Phosphorylation of PKC-delta at T505 is seen within 1 hour after IR, while phosphorylation at Y64 and Y155 are detectable by 2 hours post IR and continue to increase until at least 6 hours (FIG. 1A). […] Active caspase-3/7 was detected using the Caspase-3/7 Cellular Activity Assay Kit PLUS (Biomol, Farmingdale, N.Y.) according to the manufacturer's instructions.

[2] = system: PKC-delta, c-Src, c-Abl in ParC5 cells; test: Immunoblot for PKC-delta pY64/pY155, c-Src pY416 and c-Abl pY412 after H2O2; format: cell-based, rat; details: TKI 30 min, then 5 mM H2O2 30 min
SMG acinar cells = test: Salivary gland histology (H&E, AQPN5 immunohistochemistry) 150 days after IR; format: in vivo, mice; details: 15 Gy IR, continuous dasatinib
Description: as §2, with “indicated.” for “indicated. Saliva production (saliva weight/animal weight) for each cohort of mice was normalized against the production for vehicle-treated mice to generate the data shown in FIG. 3B.”, “Solid arrows indicate acinar cells while dashed arrows mark salivary gland ducts.” left out
For tissue analysis, salivary glands were formalin fixed, paraffin embedded, and sectioned at […]. Tissue sections were stained with haematoxylin-eosin (H&E) and aquaporin 5 (AQPN5) was detected by immunohistochemistry (Abcam). Stained slides were archived and analyzed using the Aperio Digital Pathology System and ImageScope software (Leica Biosystems). For AQPN5, the number of positive stained pixels was quantified using the Positive Pixel algorithm in three representative sections, cut 50 micrometers apart, of both full submandibular salivary glands from two mice per treatment group, for a total of […] per group. […]

Cc1ccc(NC(=O)c2ccc(CN3CCN(C)CC3)cc2)cc1Nc1nccc(-c2cccnc2)n1 [imatinib]
phosphorylation of PKC-delta at Y64 and Y155, nuclear translocation of PKC-delta, and apoptosis (PKC-delta): block | tumor growth, TKI added to fractionated IR ([1]; 5 x 6 Gy IR, dasatinib 20 mg/kg or imatinib 50 mg/kg pre/post each fraction): no effect on tumor growth | tumor growth, TKI alone compared to respective controls ([1]; dasatinib 20 mg/kg or imatinib 50 mg/kg alone, no IR): trend towards reduced tumor growth | saliva production, % of vehicle control (salivary gland function; IR plus imatinib, one dose prior to IR (pre), 60 days (FIG. 2E)): 63% | IR-induced apoptosis (caspase-3/7 activity) (ParC5 cells): inhibits IR-induced apoptosis | inhibition of Y155 versus Y64 phosphorylation of PKC-delta [2]: slightly more potent inhibitors of Y155 phosphorylation than Y64 phosphorylation | inhibition of c-Abl versus c-Src [2]: more potent inhibition of c-Abl than c-Src

Cc1nc(Nc2ncc(C(=O)Nc3c(C)cccc3Cl)s2)cc(N2CCN(CCO)CC2)n1 [dasatinib]
saliva production, % of vehicle treated controls (salivary gland function; 15 Gy IR, dasatinib 20 mg/kg pre/post, 60 days post IR (FIG. 2B)): 65% | saliva production, % of vehicle treated mice (salivary gland function; 15 Gy IR, dasatinib pre/post only, 30 and 60 days (FIG. 3B)): 70% | saliva production, % of vehicle treated controls (salivary gland function; 15 Gy IR, dasatinib pre/post plus twice a week (continual), 90 days): 74% | saliva production, % of vehicle treated controls (salivary gland function; 15 Gy IR, dasatinib pre/post plus twice a week (continual), 120 days): 69% | saliva production, % of vehicle treated controls (salivary gland function; 15 Gy IR, dasatinib pre/post plus twice a week (continual), 150 days): 82% | protection of salivary gland function compared to vehicle only treated mice (salivary gland function; IR plus dasatinib, all 3 protocols (pre, pre/post, post/post), 60 days (FIG. 2D)): ~100% | AQPN5 staining in the SMGs, % of vehicle treated mice (SMG acinar cells): 93%

From US11376247B2, “Tyrosine kinase inhibitors regenerate non-cancerous tissue after cancer therapy” (THE REGENTS OF THE UNIVERSITY OF COLORADO, A BODY CORPORATE, priority 2017, dated 2022)
